For assay [1], the target named is T1, ACE2 binding to Spike RBD (Severe acute respiratory syndrome coronavirus 2, UniProt P0DTC2).
T1 construct: Biotin-(I-24) or His-tagged RBD protein is added; purchased Acro Biosystems SPD-C52H3 (RBD); AC2-H5257 (ACE2-Fc)
In words: biochemical. The conditions noted are these: for inhibition at 1 µM: @ 1,000 nM.

The subject of assay [2] is USA-WA1/2020 (SARS-CoV-2) virus. The conditions noted are these: USA-WA1/2020 virus.
In assay [3] the target is T2, SARS-CoV-2 (COVID-19) S Protein RBD (Severe acute respiratory syndrome coronavirus 2, UniProt P0DTC2).
T2 construct: SARS-CoV-2 (COVID-19) S Protein RBD, His Tag—Acro Biosystems SPD-C52H3; purchased Acro Biosystems SPD-C52H3
The class given is binding. The conditions noted are these: Octet. In general terms: BLI is a label-free optical method that tracks binding on a fibre tip over time.

pIC50: −log10 of the molar value. *: point of attachment. Biotin = O=C1N[C@H]2[C@H](CS[C@H]2CCCCC(=O)*)N1; PEG4 = NCCOCCOCCOCCOCCC(=O)O Bounds are passed on as bounds.

As usually defined, the inhibition is the percentage by which the read-out fell short of the control. A low value points to little suppression. In assay [1], “{Biotin-PEG4}-DKEEILNKIYEIMRLLDELGNAEASMRVSDLILEFMKKGDERLLEEAERLLEEVER-NH2 [Compound I-2]” came in with an inhibition at 1 µM of 30%.

Broadly, the pIC50 is the negative decadic logarithm of the IC50, by convention in mol/L. For the molecule `CC[C@H](C)[C@H](NC(=O)[C@H](CC(C)C)NC(=O)[C@H](CC(=O)O)NC(=O)[C@H](CO)NC(=O)[C@@H](NC(=O)[C@H](CCCNC(=N)N)NC(=O)[C@H](CCSC)NC(=O)[C@H](CO)NC(=O)[C@H](C)NC(=O)[C@H](CCC(=O)O)NC(=O)[C@H](C)NC(=O)[C@H](Cc1c[nH]cn1)NC(=O)CNC(=O)[C@H](CC(C)C)NC(=O)[C@H](CCC(=O)O)NC(=O)[C@H](CC(=O)O)NC(=O)[C@H](CC(C)C)NC(=O)[C@H](CC(C)C)NC(=O)[C@H](CCCNC(=N)N)NC(=O)[C@H](CCSC)NC(=O)[C@@H](NC(=O)[C@H](CCC(=O)O)NC(=O)[C@H](Cc1ccc(O)cc1)NC(=O)[C@@H](NC(=O)[C@H](CCCCN)NC(=O)[C@H](CCC(N)=O)NC(=O)[C@H](CC(C)C)NC(=O)[C@@H](NC(=O)[C@H](Cc1c[nH]c2ccccc12)NC(=O)[C@H](CCC(=O)O)NC(=O)[C@H](CCCCN)NC(=O)[C@H](CC(=O)O)NC(=O)CCOCCOCCOCCOCCNC(=O)CCCC[C@@H]1SC[C@@H]2NC(=O)N[C@@H]21)[C@@H](C)CC)[C@@H](C)CC)[C@@H](C)CC)C(C)C)C(=O)N[C@@H](Cc1ccc(O)cc1)C(=O)N[C@@H](CCC(=O)O)C(=O)N[C@@H](Cc1ccccc1)C(=O)N[C@@H](CCSC)C(=O)N[C@@H](CCCCN)C(=O)N[C@@H](CCCCN)C(=O)NCC(=O)N[C@@H](CC(=O)O)C(=O)N[C@@H](CCC(=O)O)C(=O)N[C@@H](CCCNC(=N)N)C(=O)N[C@@H](CC(C)C)C(=O)N[C@@H](CC(C)C)C(=O)N[C@@H](CCC(=O)O)C(=O)N[C@@H](CCC(=O)O)C(=O)N[C@@H](C)C(=O)N[C@@H](CCC(=O)O)C(=O)N[C@@H](CCCNC(=N)N)C(=O)N[C@@H](CC(C)C)C(=O)N[C@@H](CC(C)C)C(=O)N[C@@H](CCC(=O)O)C(=O)N[C@@H](CCC(=O)O)C(=O)N[C@H](C(=O)N[C@@H](CCC(=O)O)C(=O)N[C@@H](CCCNC(=N)N)C(=O)O)C(C)C` [Compound I-6], in assay [2], the pIC50 was greater than 8.34.

For “Ac-DKEEILNKIYEIMRLLDELGNAEASMRVSDLILEFMKKGDERLLEEAERLLEEVER-NH2 [Compound I-1]”, the inhibition at 1 µM in assay [1] worked out at 42%. In addition, the negative logarithm of the IC50 (pIC50) in assay [1] (ELISA competition, read-out: IC50, Inhibition of ACE2 Binding to Spike RBD) was less than 6.00. For the same molecule, the “KD, Binding to Anchored Spike RBD” value in assay [3] was “No Binding”.

On to `CC[C@H](C)[C@H](NC(=O)[C@H](CC(C)C)NC(=O)[C@H](CC(=O)O)NC(=O)[C@H](CO)NC(=O)[C@@H](NC(=O)[C@H](CCCNC(=N)N)NC(=O)[C@H](CCSC)NC(=O)[C@H](CO)NC(=O)[C@H](C)NC(=O)[C@H](CCC(=O)O)NC(=O)[C@H](C)NC(=O)[C@H](Cc1c[nH]cn1)NC(=O)CNC(=O)[C@H](CC(C)C)NC(=O)[C@H](CCC(=O)O)NC(=O)[C@H](CC(=O)O)NC(=O)[C@H](CC(C)C)NC(=O)[C@H](CC(C)C)NC(=O)[C@H](CCCNC(=N)N)NC(=O)[C@H](CCSC)NC(=O)[C@@H](NC(=O)[C@H](CCC(=O)O)NC(=O)[C@H](Cc1ccc(O)cc1)NC(=O)[C@@H](NC(=O)[C@H](CCCCN)NC(=O)[C@H](CCC(N)=O)NC(=O)[C@H](CC(C)C)NC(=O)[C@@H](NC(=O)[C@H](Cc1c[nH]c2ccccc12)NC(=O)[C@H](CCC(=O)O)NC(=O)[C@H](CCCCN)NC(=O)[C@H](CC(=O)O)NC(=O)CCOCCOCCOCCOCCNC(=O)CCCC[C@@H]1SC[C@@H]2NC(=O)N[C@@H]21)[C@@H](C)CC)[C@@H](C)CC)[C@@H](C)CC)C(C)C)C(=O)N[C@@H](Cc1ccc(O)cc1)C(=O)N[C@@H](CCC(=O)O)C(=O)N[C@@H](Cc1ccccc1)C(=O)N[C@@H](CCSC)C(=O)N[C@@H](CCCCN)C(=O)N[C@@H](CCCCN)C(=O)NCC(=O)N[C@@H](CC(=O)O)C(=O)N[C@@H](CCC(=O)O)C(=O)N[C@@H](CCCNC(=N)N)C(=O)N[C@@H](CC(C)C)C(=O)N[C@@H](CC(C)C)C(=O)N[C@@H](CCC(=O)O)C(=O)N[C@@H](CCC(=O)O)C(=O)N[C@@H](C)C(=O)N[C@@H](CCC(=O)O)C(=O)N[C@@H](CCCNC(=N)N)C(=O)N[C@@H](CC(C)C)C(=O)N[C@@H](CC(C)C)C(=O)N[C@@H](CCC(=O)O)C(=O)N[C@@H](CCC(=O)O)C(=O)N[C@H](C(=O)N[C@@H](CCC(=O)O)C(=O)N[C@@H](CCCNC(=N)N)C(N)=O)C(C)C` [Compound I-14], for which, in assay [2], the negative logarithm of the IC50 (pIC50) was greater than 8.34.

The record behind these values is patent US20240335555A1, “TECHNOLOGIES FOR PREVENTING OR TREATING INFECTIONS” (priority 2021, published 2024).
